Values after ≈ are worked out from the molar mass of the structure shown.
Assays:
[1] = system: bisantrene-resistant human ovarian carcinoma cells S1-B1-20 (OVCAR-3 subclone); experiment: Screening assay for reversal agents: Difference Score with/without 20 μM bisantrene; assay type: cell-based; conditions: alone vs with 20 μM bisantrene, 3 days, difference in % cell survival; for Difference Score at 1 microM: test agent 1 microM; for Difference Score at 10 microM: test agent 10 microM; for Difference Score at 20 microM: test agent 20 microM
Experimental: Such cells are sorted by a fluorescent activated cell sorter (FACS; Becton Dickinson Model 440).
Cells, prepared by trypsinization, are plated at 20,000 cells/well in media with and without bisantrene. Then, test agents at varying concentrations are added to the cells. […] Completed plates are incubated for 3 days at 37° C. in a moisturized 7% CO2 atmosphere. […] Dye content/well is read at 540 nm in a microtiter reader. Values are electronically processed, % cell survival compared to untreated cells is computed, and the results are expressed as the difference between these values. Experiments are run in the presence of the test agent alone and the test agent in combination with 20 μM bisantrene. The Difference Score between those two experiments is reported below for 3 different concentrations of test agent.

[2] = system: vincristine resistant murine leukemia P388/VCR; experiment: In vivo evaluation of MDR-1 reversal agents against vincristine resistant murine leukemia P388/VCR implanted IP in CDF1 mice; conditions: days 1-7, IP; for % ILS: vs vincristine alone
Experimental: Tumor cell ascites are harvested 5-7 days later. For drug testing, groups of 10-15 CDF1 mice (DBA/2×Balb/cF1 hybrids; Charles River Laboratories, Inc) are injected IP with 0.5 ml of diluted ascitic fluid containing 1×10^6 viable P388/VCR tumor cells. […] Drugs are administered once daily, by the IP, intravenous (IV) or oral route, starting one day after tumor implantation and using a variety of treatment schedules. Mice are weighed periodically, survival is recorded for 30 days post tumor implantation, and Mean survival times are calculated for all groups of mice. Statistical analysis of Mean survival times is carried out using the Student t-test.

[3] = system: human epidermoid carcinoma KB/8.5; experiment: In vivo evaluation of MDR-1 reversal agents against human epidermoid carcinoma KB/8.5 implanted SC in athymic nude mice; parameters: species or system human (tumor in athymic nude mice)
Experimental: The multiple drug resistant human epidermoid carcinoma KB/8.5 is propagated in medium containing colchicine (10 nanograms/ml) to maintain drug resistance. Colchicine is removed from the medium, for two cell passages, prior to subcutaneous (SC) implant of 8×10^6 KB/8.5 tumor cells into athymic "nude" mice (Harlan Sprague Dawley). […] Individual mouse tumor mass and mean tumor mass for each treatment group is determined on Day +14 and Day +21 of the test period. For each treatment group, the Relative Tumor Growth, RTG, is calculated as follows: [formula]
Statistical analysis of Log Relative Tumor Growth is carried out using the Student t-test. Transformation of the data from absolute mean tumor mass (mgs tumor mass) to Log Relative Tumor Growth prior to statistical analysis has two beneficial effects:
1) it corrects the data for differences in mean tumor mass of the different treatment groups at the start of the test period (Day 0); and
2) the Log transformation of the data more adequately reflects the exponential growth pattern of the SC tumors and makes the use of the Student t-test more appropriate.

[4] = Limit of solubility of bisantrene; assay type: physicochemical; conditions: cell culture medium; cell culture maintenance
[5] = system: multiple drug resistance tumor cells; conditions: background, resensitizing agents for treatment of cancer; cited from earlier work
[6] = vincristine 0.2 + compound 6.3 mg/kg
[7] = doxorubicin 8 mg/kg IV + compound 25 mg/kg/dose SC at -2 h and +2 h
[8] = doxorubicin 8 mg/kg IV + compound 75 mg/kg/dose SC at -2 h and +2 h
[9] = doxorubicin 8 mg/kg IV + compound 200 mg/kg/dose SC at -2 h and +2 h
[10] = doxorubicin 8 mg/kg IV + compound 200 mg/kg/dose SC x2
[11] = vincristine 0.2 + compound 25 mg/kg

For “2-[6-Cyano-6(3,4-dimethoxyphenyl)-6-[(4-methylphenyl)-thio]hexyl]-1,2,3,4-tetrahydo-5-methoxy-7-isoquinoline trifluoromethanesulfonic acid [Example 102]”, the “Difference Score at 1 microM” value [1] was 30, the “Difference Score at 10 microM” value [1] was 82 and the “Difference Score at 20 microM” value [1] was 82.
For “2-[7-(4-Fluorophenyl)-7-[(4-methylphenyl)thio]heptyl]-1,2,3,4-tetrahydro-6,7-isoquinoline [Example 95]”, the “Difference Score at 1 microM” value [1] was 28, the “Difference Score at 10 microM” value [1] was 71 and the “Difference Score at 20 microM” value [1] was 57.
In the case of COc1ccc(C(CCCCCN2CCc3cc(OC)c(OC)cc3C2)Sc2ccc(C)cc2)cc1OC (centres unmarked) [Example 41, 2-[6-(3,4-Dimethoxyphenvl]-6-[(4-methylphenyl)thio]-hexyl]-1,2,3,4-tetrahydro-6,7-dimethoxyisoquinoline], the MST [2, 6] is reported as 14.1 days, the “% ILS” value [2, 6] is reported as “+13%” and the “Relative Tumor Growth Day 21” value [3, 7] is reported as 6.15. The “Relative Tumor Growth Day 21” value [3, 8] was 8.54, the “Relative Tumor Growth Day 21” value [3, 9] was 4.57 and the “toxicity remark (tox), Day 14” value [3, 10] was “tox”. The “toxicity remark (tox), Day 21” value [3, 10] was “tox” and the “Relative Tumor Growth Day 21” value ([3]; doxorubicin 8 mg/kg IV + compound […] SC at -2 h and +2 h) was 7.27.
In the case of COc1ccc2c(c1)CCN(CCCCCC(Sc1ccc(C)cc1)c1ccc(OC)c(OC)c1)C2 (centres unmarked) [Example 46, 2-[6-(3,4-Dimethoxyphenyl)-6-[(4-methylphenyl)thio]-hexyl]-1,2,3,4-tetrahydro-6-methoxyisoquinoline], the MST [2, 11] is reported as 16.7 days, the “% ILS” value [2, 11] is reported as “+36%” and the “Relative Tumor Growth Day 21” value [3, 7] is reported as 9.65. The “Relative Tumor Growth Day 21” value ([3]; doxorubicin 8 mg/kg IV + compound 50 mg/kg/dose SC at -2 h and +2 h) was 8.83, the “Relative Tumor Growth Day 21” value [3, 8] was 10.23 and the “Relative Tumor Growth Day 21” value ([3]; doxorubicin 8 mg/kg IV + compound 100 mg/kg/dose SC at -2 h and +2 h) was 10.91. For the same compound, the “Relative Tumor Growth Day 21” value [3, 9] was 8.99.
In the case of COc1ccc(C(C#N)(CCCCCN2Cc3cc(OC)c(OC)cc3C2)SC2CCCCC2)cc1OC (stereo not drawn) [Example 86, α-(Cyclohexylthio)-α-(3,4-dimethoxyphenyl)-1,3-dihydro5,6-dimethoxy-2(1H)-isoindoleheptane nitrile], the “Difference Score at 1 microM” value [1] is reported as 83, the “Difference Score at 10 microM” value [1] is reported as 77 and the “Difference Score at 20 microM” value [1] is reported as 29.
In the case of COc1ccc(C(C#N)(CCCCCN2Cc3cc(OC)c(OC)cc3C2)SC2CCCCC2)cc1OC.Cl (stereo not drawn) [Example 120, α-(Cyclohexylthio)-α-(3,4-dimethoxyphenyl)-1,3-dihydro 5,6-dimethoxy-2(1H)-isoindoleheptanenitrile hydrochloride], the “Difference Score at 1 microM” value [1] is reported as 83, the “Difference Score at 10 microM” value [1] is reported as 59 and the “Difference Score at 20 microM” value [1] is reported as 1.
C(=N\NC1=NCCN1)/c1c2ccccc2c(/C=N/NC2=NCCN2)c2ccccc12 [bisantrene] gave a solubility [4] of 20 µM (≈ 7.97 µg/mL).
In the case of CN1CCN(CCCN2c3ccccc3Sc3ccc(C(F)(F)F)cc32)CC1 [trifluoroperizine], the “toxic side effects in the clinic” value [5] is given as “limited by toxic side effects”.
